Data as given in patent US20170190671A1, “BIS(ARYL)CATECHOL DERIVATIVES AS HERBICIDES” (E I DU PONT DE NEMOURS AND COMPANY, priority 2014, published 2017).

Columns and labels:
Experiment in all cases: Test C preemergence
Assay type in all cases: in vivo
[1] = test system: Italian ryegrass (Lolium multiflorum); conditions: Lolium multiflorum, pre-emergence, 336 h, scale 0 to 100, read-out: Plant response rating, Ryegrass, Italian
How it was run: (§1)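 Greenhouse test, preemergence on seeded soil or postemergence on 1- to 4-leaf plants. Response is a visual 0-100 rating versus controls, taken 13-15 days after treatment.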

[2] = test system: barnyardgrass (Echinochloa crus-galli); conditions: Echinochloa crus-galli, pre-emergence, read-out: Plant response rating, Barnyardgrass
How it was run: as §1

[3] = test system: blackgrass (Alopecurus myosuroides); conditions: Alopecurus myosuroides, pre-emergence, 336 h, scale 0 to 100, read-out: Plant response rating, Blackgrass
How it was run: as §1

corn (Zea mays) = conditions: Zea mays, pre-emergence, 336 h, scale 0 to 100
How it was run: as §1

[4] = test system: galium (catchweed bedstraw, Galium aparine); conditions: Galium, pre-emergence, 336 h, scale 0 to 100, read-out: Plant response rating, Galium
How it was run: as §1

[5] = test system: johnsongrass (Sorghum halepense); conditions: Sorghum halepense, pre-emergence, 336 h, scale 0 to 100, read-out: Plant response rating, Johnsongrass
How it was run: as §1

[6] = test system: lambsquarters (Chenopodium album); conditions: Chenopodium album, pre-emergence, 336 h, scale 0 to 100, read-out: Plant response rating, Lambsquarters
How it was run: as §1

[7] = test system: morningglory (Ipomoea coccinea); conditions: Ipomoea, pre-emergence, 336 h, scale 0 to 100, read-out: Plant response rating, Morningglory
How it was run: as §1

[8] = test system: pigweed (Amaranthus retroflexus); conditions: Amaranthus retroflexus, pre-emergence, 336 h, scale 0 to 100, read-out: Plant response rating, Pigweed
How it was run: as §1

[9] = test system: ragweed (common ragweed, Ambrosia elatior); conditions: Ambrosia artemisiifolia, pre-emergence, 336 h, scale 0 to 100, read-out: Plant response rating, Ragweed
How it was run: as §1

soybean (Glycine max) = conditions: Glycine max, pre-emergence, scale 0 to 100, read-out: Plant response rating, Soybean
How it was run: as §1

[10] = test system: velvetleaf (Abutilon theophrasti); conditions: Abutilon theophrasti, pre-emergence, scale 0 to 100, read-out: Plant response rating, Velvetleaf
How it was run: as §1

[11] = test system: waterhemp (common waterhemp, Amaranthus rudis); conditions: Amaranthus tuberculatus, pre-emergence, scale 0 to 100, read-out: Plant response rating, Waterhemp
How it was run: as §1

[12] = test system: yellow nutsedge (Cyperus esculentus); conditions: Cyperus, pre-emergence, 336 h, scale 0 to 100, read-out: Plant response rating, Nutsedge, Yellow
How it was run: as §1

Which results are given for `N#Cc1cccc(Oc2ncc(Cl)cn2)c1Oc1cnc(Cl)cn1` [Compound 32, 2-[(5-chloro-2-pyrazinyl)oxy]-3-[(5-chloro-2-pyrimidinyl)oxy]benzonitrile]?
pest or weed control at 31 g/ha ([1]; 31 g ai/ha, preemergence): 50%; pest or weed control at 62 g/ha ([1]; 62 g ai/ha, preemergence): 80%; pest or weed control at 125 g/ha ([1]; 125 g ai/ha, preemergence): 90%; pest or weed control at 16 g/ha ([1]; Preemergence, 16 g ai/ha): 5%; pest or weed control at 31 g/ha ([2]; 31 g ai/ha, preemergence, scale 0 to 100): 85%; pest or weed control at 62 g/ha ([2]; 62 g ai/ha, preemergence, scale 0 to 100): 98%; pest or weed control at 125 g/ha ([2]; 125 g ai/ha, preemergence, scale 0 to 100): 100%; pest or weed control at 16 g/ha ([2]; Preemergence, 16 g ai/ha, scale 0 to 100 (0 no effect, 100 complete control)): 50%; pest or weed control at 31 g/ha ([3]; 31 g ai/ha, preemergence): 70%; pest or weed control at 62 g/ha ([3]; 62 g ai/ha, preemergence): 90%; pest or weed control at 125 g/ha ([3]; 125 g ai/ha, preemergence): 95%; pest or weed control at 16 g/ha ([3]; Preemergence, 16 g ai/ha): 0%; Corn plant response rating (crop injury, 0 = no effect, 100 = complete kill) at 31 g/ha (corn (Zea mays); 31 g ai/ha, preemergence): 60%; Corn plant response rating (crop injury, 0 = no effect, 100 = complete kill) at 62 g/ha (corn (Zea mays); 62 g ai/ha, preemergence): 65%; Corn plant response rating (crop injury, 0 = no effect, 100 = complete kill) at 125 g/ha (corn (Zea mays); 125 g ai/ha, preemergence): 65%; Corn plant response rating (crop injury, 0 = no effect, 100 = complete kill) at 16 g/ha (corn (Zea mays); Preemergence, 16 g ai/ha): 5%; pest or weed control at 31 g/ha ([4]; 31 g ai/ha, preemergence): 95%; pest or weed control at 62 g/ha ([4]; 62 g ai/ha, preemergence): 95%; pest or weed control at 125 g/ha ([4]; 125 g ai/ha, preemergence): 95%; pest or weed control at 16 g/ha ([4]; Preemergence, 16 g ai/ha): 10%; pest or weed control at 31 g/ha ([5]; 31 g ai/ha, preemergence): 85%; pest or weed control at 62 g/ha ([5]; 62 g ai/ha, preemergence): 100%; pest or weed control at 125 g/ha ([5]; 125 g ai/ha, preemergence): 100%; pest or weed control at 16 g/ha ([5]; Preemergence, 16 g ai/ha): 40%; pest or weed control at 31 g/ha ([6]; 31 g ai/ha, preemergence): 90%; pest or weed control at 62 g/ha ([6]; 62 g ai/ha, preemergence): 90%; pest or weed control at 125 g/ha ([6]; 125 g ai/ha, preemergence): 100%; pest or weed control at 16 g/ha ([6]; Preemergence, 16 g ai/ha): 60%; pest or weed control at 31 g/ha ([7]; 31 g ai/ha, preemergence): 10%; pest or weed control at 62 g/ha ([7]; 62 g ai/ha, preemergence): 40%; pest or weed control at 125 g/ha ([7]; 125 g ai/ha, preemergence): 90%; pest or weed control at 16 g/ha ([7]; Preemergence, 16 g ai/ha): 20%; pest or weed control at 31 g/ha ([8]; 31 g ai/ha, preemergence): 100%; pest or weed control at 62 g/ha ([8]; 62 g ai/ha, preemergence): 100%; pest or weed control at 125 g/ha ([8]; 125 g ai/ha, preemergence): 100%; pest or weed control at 16 g/ha ([8]; Preemergence, 16 g ai/ha): 100%; pest or weed control at 31 g/ha ([9]; 31 g ai/ha, preemergence): 20%; pest or weed control at 62 g/ha ([9]; 62 g ai/ha, preemergence): 10%; pest or weed control at 125 g/ha ([9]; 125 g ai/ha, preemergence): 50%; pest or weed control at 16 g/ha ([9]; Preemergence, 16 g ai/ha): 10%; plant injury at 31 g/ha (soybean (Glycine max); 31 g ai/ha, preemergence): 45%; plant injury at 62 g/ha (soybean (Glycine max); 62 g ai/ha, preemergence): 45%; plant injury at 125 g/ha (soybean (Glycine max); 125 g ai/ha, preemergence): 90%; plant injury at 16 g/ha (soybean (Glycine max); Preemergence, 16 g ai/ha): 55%; pest or weed control at 31 g/ha ([10]; 31 g ai/ha, preemergence): 40%; pest or weed control at 62 g/ha ([10]; 62 g ai/ha, preemergence): 75%; pest or weed control at 125 g/ha ([10]; 125 g ai/ha, preemergence): 85%; pest or weed control at 16 g/ha ([10]; Preemergence, 16 g ai/ha): 5%; pest or weed control at 31 g/ha ([11]; 31 g ai/ha, preemergence): 100%; pest or weed control at 62 g/ha ([11]; 62 g ai/ha, preemergence): 100%; pest or weed control at 125 g/ha ([11]; 125 g ai/ha, preemergence): 100%; pest or weed control at 16 g/ha ([11]; Preemergence, 16 g ai/ha): 100%; pest or weed control at 31 g/ha ([12]; 31 g ai/ha, preemergence): 35%; pest or weed control at 62 g/ha ([12]; 62 g ai/ha, preemergence): 60%; pest or weed control at 125 g/ha ([12]; 125 g ai/ha, preemergence): 75%; pest or weed control at 16 g/ha ([12]; Preemergence, 16 g ai/ha): 5%
